This passage reports ED50 and MIC results from patent publication US4364944A, “Cephalosporins” (Dr. Karl Thomae Gesellschaft mit beschrankter Haftung, priority 1980, dated 1982).

Assay [1] relates to E. coli ATCC 11775. The assay is described as follows: In vivo activity against experimental E. coli infection in mice. The settings on record: Escherichia coli, ATCC11775, sc, 168 h; s.c. administration once, 1 hour after i.p. infection; dose at which 50% of the animals survive; 7 days. Also on record: species or system E. coli in female mice of the NMRI strain. The method, then:
A few compounds of the invention and cefuroxim were tested in vivo against experimental infections in mice. E. coli ATCC 11775 was used as the pathogenic bacteria. An intraperitoneal infection was induced with 0.2 ml of a 5% mucin suspension of the bacteria. This corresponds to approximately 1.4×10^6 E. coli bacteria per mouse. Female mice of the NMRI strain were divided into groups of 10 animals, of which 2 groups remained untreated while the remaining groups were treated with various doses of the particular cephalosporin according to the invention for the purpose of determining the ED50 (dose at which 50% of the animals survive). The treatment was applied once (1 hour after infection). The observation period was 7 days. The results of these tests are shown in Table III below, where the numbering of the compounds again corresponds to that used in Table I.

Another assay has as its system Prot. rettg. The assay is described as follows: Minimum inhibiting concentration, serial dilution test in the microtiter system. It counts as cell-based, Proteus rettgeri. To be noted: Providencia rettgeri, 37° C., 18 to 20 hours. The protocol:
(§1) These tests were performed using the serial dilution test in the microtiter system. The effect of the test compound on bacteriostasis was tested in a liquid medium at the following concentrations: 128, 64, 32, 16, 8, 4, 2, 1, 0.5, 0.25, 0.12 and 0.06 μgm/ml. The nutrient medium consisted of 10 gm of peptone, 8 gm of meat extract oxoid, 3 gm of sodium chloride, and 2 gm of sec. sodium phosphate diluted with distilled water to […] (pH 7.2-7.4). The age of the primary cultures was approximately 20 hours. The standardization of the bacteria suspension was effected using a photometer according to the method of Eppendorf (test tube .phi. 14 mm, filter 546 nm), using for comparison a barium sulfate suspension formed by the addition of 3.0 ml of 1% barium chloride solution to 97 ml of 1% sulfuric acid. After standardization, the test microorganisms were further diluted to a concentration of 1:1500, using a sodium chloride solution.
(§2) 16 mgm of the particular test compound were put into a 10 ml measuring flask, and the flask was subsequently filled to the mark with the solvent. The further dilution series was standardized with distilled water or the appropriate solvent.
(§3) The depressions of the microtiter plates were filled with 0.2 ml of nutrient medium. 0.01 ml of the appropriate test compound solution was then added, followed by inoculation with 0.1 ml (1 drop) of the standardized bacteria suspension. The bacteria were incubated at 37° C. for 18 to 20 hours. Control tests using only the solvent were carried out simultaneously.
(§4) The readings were made macroscopically to determine the minimum inhibitory concentration (the lowest still bacteriostatically effective concentration).
(§5) Staphylococcus aureus SG 511, Escherichia coli ATCC 11 775, Pseudomonas aeruginosa hamburgensis and Pseudomonas aeruginosa BC 19, Serratia marcescens ATCC 13 800, Klebsiella pneumoniae ATCC 10031 and BC 6, Proteus mirabilis BC 17, Proteus rettgeri BC 7, Enterobacter Cloaceae ATCC 13047 and E. coli R+TEM (β-lactamase carrier).

In another assay the test system is K. pneum. 1082 E. The description is as above. It counts as cell-based. To be noted: Klebsiella pneumoniae, 37° C., 18 to 20 hours. The protocol:
as §1, §2, §3, §4

For a further assay, the system named is Pseud. Hbg. Described as above. It counts as cell-based, Pseudomonas aeruginosa hamburgensis. The settings on record: Pseudomonas aeruginosa, 37° C., 18 to 20 hours. The protocol:
as §1, §2, §3, §4, §5

The next assay deals with Ent. cloac. ATCC 13047. The assay is described as above. It counts as cell-based, Enterobacter Cloaceae. The settings on record: Enterobacter, ATCC13047, 37° C., 18 to 20 hours. The method, then: as §1, §2, §3, §4, §5
A further assay concerns Pseud. BC 19. The description is as above. It counts as cell-based. The settings on record: Pseudomonas aeruginosa, 37° C., 18 to 20 hours. The protocol:
as §1, §2, §3, §4, §5

A further assay relates to Staph. aureus SG 511. The assay is described as above. To be noted: Staphylococcus aureus, SG511, 37° C., 18 to 20 hours. It counts as cell-based. The protocol:
as §1, §2, §3, §4, §5

In assay [2] the test system is Serr. marcesc. ATCC 13880. Described as above. It counts as cell-based. The settings on record: Serratia marcescens, ATCC13880, 37° C., 18 to 20 hours. The method, then: as §1, §2, §3, §4, §5
For a further assay, the system named is Kl. pneum. BC 6. Described as above. It counts as cell-based. To be noted: Klebsiella pneumoniae, 37° C., 18 to 20 hours. The method, then: as §1, §2, §3, §4, §5
In a further assay the test system is Kl. pneum. ATCC 10031. Described as above. It counts as cell-based. To be noted: Klebsiella pneumoniae, ATCC10031, 37° C., 18 to 20 hours. The method, then: as §1, §2, §3, §4, §5
The subject of a further assay is Prot. mirab. BC 17. The description is as above. It counts as cell-based. To be noted: Proteus mirabilis, 37° C., 18 to 20 hours. The protocol: as §1, §2, §3, §4, §5
Assay [3] relates to E. coli ATCC 11775. Described as above. It counts as cell-based. To be noted: Escherichia coli, ATCC11775, 37° C., 18 to 20 hours. The method, then: as §1, §2, §3, §4, §5
The subject of another assay is E. coli R + TEM. The assay is described as above. It counts as cell-based. To be noted: Escherichia coli, read-out: Minimum inhibiting concentration (MIC). The method, then:
as §1, §2, §3, §4, §5

Values after ≈ are worked out from the molar mass of the structure shown. A value given as a limit tells only on which side of the number the result lay.

For `Cn1nnnc1SCC1=C(C(=O)O)N2C(=O)[C@@H](NC(=O)C(NC(=O)Nc3cnc(NCc4ccco4)nc3O)c3csc(N)n3)[C@H]2SC1` (some centres unmarked) [Compound 1], the ED50 (usually the dose at which the effect has come halfway, by size or by number of responders) in the assay with E. coli ATCC 11775 [1] is 0.8 mg/kg. The MIC against Prot. rettg. came out at 0.06 µg/mL (≈ 0.0838 µM); against K. pneum. 1082 E, 16 µg/mL (≈ 22.4 µM); in the assay with Pseud. Hbg., 16 µg/mL (≈ 22.4 µM); in the assay with Ent. cloac. ATCC 13047, 0.25 µg/mL (≈ 0.349 µM); against Pseud. BC 19, 16 µg/mL (≈ 22.4 µM); in the assay with Staph. aureus SG 511, 1 µg/mL (≈ 1.4 µM). Moreover, the MIC in assay [2] amounted to 0.06 µg/mL (≈ 0.0838 µM); with Kl. pneum. BC 6, 0.03 µg/mL (≈ 0.0419 µM); in the assay with Kl. pneum. ATCC 10031, 0.06 µg/mL (≈ 0.0838 µM); in the assay on Prot. mirab. BC 17 it was 0.01 µg/mL (≈ 0.014 µM); against E. coli ATCC 11775 [3], 0.03 µg/mL (≈ 0.0419 µM); in the assay on E. coli R + TEM, 0.5 µg/mL (≈ 0.699 µM).

`Nc1nc(C(NC(=O)Nc2cnc(NCc3ccc(S(N)(=O)=O)s3)nc2O)C(=O)N[C@@H]2C(=O)N3C(C(=O)O)=C(CSc4nnnn4CCO)CS[C@H]23)cs1` (some centres unmarked) [Compound 6] showed a 50% effective dose (ED50) in the assay on E. coli ATCC 11775 [1] of less than 0.5 mg/kg. Further, the MIC amounted to 0.06 µg/mL (≈ 0.0713 µM) against Prot. rettg.; 16 µg/mL (≈ 19 µM) against K. pneum. 1082 E; 16 µg/mL (≈ 19 µM) in the assay on Pseud. Hbg.; 0.06 µg/mL (≈ 0.0713 µM) against Ent. cloac. ATCC 13047; 8 µg/mL (≈ 9.51 µM) in the assay with Pseud. BC 19; 1 µg/mL (≈ 1.19 µM) against Staph. aureus SG 511. For the same compound, the MIC in [2] is 0.06 µg/mL (≈ 0.0713 µM); against Kl. pneum. BC 6, 0.03 µg/mL (≈ 0.0357 µM); in the assay on Kl. pneum. ATCC 10031 it was 0.06 µg/mL (≈ 0.0713 µM); in the assay on Prot. mirab. BC 17 it was 0.03 µg/mL (≈ 0.0357 µM); in the assay on E. coli ATCC 11775 [3], less than 0.03 µg/mL; in the assay with E. coli R + TEM it was 0.5 µg/mL (≈ 0.595 µM).

`CO/N=C(\C(=O)N[C@@H]1C(=O)N2C(C(=O)O)=C(COC(N)=O)CS[C@H]12)c1ccco1` [Cefuroxim, reference compound] gave an ED50 with E. coli ATCC 11775 [1] of more than 100 mg/kg. For the same compound, the MIC against Prot. rettg. was 2 µg/mL (≈ 4.71 µM); in the assay with Pseud. Hbg., more than 128 µg/mL; against Ent. cloac. ATCC 13047, 32 µg/mL (≈ 75.4 µM); against Pseud. BC 19, more than 128 µg/mL; with Staph. aureus SG 511, 1 µg/mL (≈ 2.36 µM); in assay [2], 8 µg/mL (≈ 18.9 µM). The MIC in the assay on Kl. pneum. BC 6 turned out to be 4 µg/mL (≈ 9.43 µM); against Kl. pneum. ATCC 10031, 2 µg/mL (≈ 4.71 µM); against Prot. mirab. BC 17, 0.5 µg/mL (≈ 1.18 µM); with E. coli ATCC 11775 [3], 8 µg/mL (≈ 18.9 µM); in the assay on E. coli R + TEM, 4 µg/mL (≈ 9.43 µM).

With `Cn1nnnc1SCC1=C(C(=O)O)N2C(=O)[C@@H](NC(=O)C(NC(=O)Nc3cnc(NCc4ccc(S(N)(=O)=O)s4)nc3O)c3csc(N)n3)[C@H]2SC1` (some centres unmarked) [Compound 4], the ED50 in the assay on E. coli ATCC 11775 [1] is less than 0.5 mg/kg. For the same compound, the MIC in the assay on Prot. rettg. is 0.01 µg/mL (≈ 0.0123 µM); against K. pneum. 1082 E, 8 µg/mL (≈ 9.87 µM); against Pseud. Hbg., 16 µg/mL (≈ 19.7 µM); in the assay with Ent. cloac. ATCC 13047, 0.06 µg/mL (≈ 0.074 µM); against Pseud. BC 19, 8 µg/mL (≈ 9.87 µM); against Staph. aureus SG 511, 1 µg/mL (≈ 1.23 µM). In addition, the MIC in assay [2] worked out at 0.06 µg/mL (≈ 0.074 µM); against Kl. pneum. BC 6, 0.03 µg/mL (≈ 0.037 µM); against Kl. pneum. ATCC 10031, 0.03 µg/mL (≈ 0.037 µM); with Prot. mirab. BC 17 it was 0.01 µg/mL (≈ 0.0123 µM); in the assay on E. coli ATCC 11775 [3] it was 0.01 µg/mL (≈ 0.0123 µM); with E. coli R + TEM, 0.25 µg/mL (≈ 0.308 µM).

`CO[C@@]1(NC(=O)C(NC(=O)Nc2cnc(NCc3ccco3)nc2O)c2ccccc2)C(=O)N2C(C(=O)O)=C(CSc3nnnn3C)CS[C@@H]21` (some centres unmarked) [Compound 14]: the ED50 in the assay on E. coli ATCC 11775 [1] was 2.5 to 5 mg/kg. Further, the MIC was determined as 1 µg/mL (≈ 1.38 µM) with Prot. rettg.; 0.25 µg/mL (≈ 0.345 µM) against K. pneum. 1082 E; 8 µg/mL (≈ 11.1 µM) against Pseud. Hbg.; 1 µg/mL (≈ 1.38 µM) in the assay on Ent. cloac. ATCC 13047; 8 µg/mL (≈ 11.1 µM) in the assay with Pseud. BC 19; 0.5 µg/mL (≈ 0.691 µM) in the assay with Staph. aureus SG 511. The MIC in assay [2] came to 0.25 µg/mL (≈ 0.345 µM); against Kl. pneum. BC 6, 0.25 µg/mL (≈ 0.345 µM); against Kl. pneum. ATCC 10031 it was 0.25 µg/mL (≈ 0.345 µM); against Prot. mirab. BC 17 it was 0.12 µg/mL (≈ 0.166 µM); in the assay with E. coli ATCC 11775 [3], 0.12 µg/mL (≈ 0.166 µM); with E. coli R + TEM, 0.25 µg/mL (≈ 0.345 µM).

On to `CO[C@@]1(NC(=O)C(NC(=O)Nc2cnc(NCc3ccc(S(N)(=O)=O)s3)nc2O)c2ccccc2)C(=O)N2C(C(=O)O)=C(CSc3nnnn3C)CS[C@@H]21` (some centres unmarked) [Compound 11], for which the ED50 in the assay with E. coli ATCC 11775 [1] is approximately 5 mg/kg. The MIC was determined as 0.5 µg/mL (≈ 0.611 µM) in the assay with Prot. rettg.; 0.25 µg/mL (≈ 0.305 µM) with K. pneum. 1082 E; 16 µg/mL (≈ 19.5 µM) against Pseud. Hbg.; 0.5 µg/mL (≈ 0.611 µM) with Ent. cloac. ATCC 13047; 8 µg/mL (≈ 9.77 µM) in the assay on Pseud. BC 19; 1 µg/mL (≈ 1.22 µM) in the assay on Staph. aureus SG 511. Moreover, the MIC came to 0.25 µg/mL (≈ 0.305 µM) in assay [2]; 0.25 µg/mL (≈ 0.305 µM) against Kl. pneum. BC 6; 0.25 µg/mL (≈ 0.305 µM) in the assay with Kl. pneum. ATCC 10031; 0.06 µg/mL (≈ 0.0733 µM) against Prot. mirab. BC 17; 0.12 µg/mL (≈ 0.147 µM) against E. coli ATCC 11775 [3]; 0.25 µg/mL (≈ 0.305 µM) with E. coli R + TEM.
